Results on one molecule are retold here after US20250000834A1, “COMPOSITIONS AND METHODS FOR TARGETING GPCR FOR THE PREVENTION AND TREATMENT OF PAIN” (Duke University, priority 2021, published 2025).

The EC50 is the concentration needed to bring the measured effect to its halfway point.

Assay [1] has as its target T1, hGPR37L1 (Homo sapiens, UniProt O60883).
T1 sequence (O60883 26-481): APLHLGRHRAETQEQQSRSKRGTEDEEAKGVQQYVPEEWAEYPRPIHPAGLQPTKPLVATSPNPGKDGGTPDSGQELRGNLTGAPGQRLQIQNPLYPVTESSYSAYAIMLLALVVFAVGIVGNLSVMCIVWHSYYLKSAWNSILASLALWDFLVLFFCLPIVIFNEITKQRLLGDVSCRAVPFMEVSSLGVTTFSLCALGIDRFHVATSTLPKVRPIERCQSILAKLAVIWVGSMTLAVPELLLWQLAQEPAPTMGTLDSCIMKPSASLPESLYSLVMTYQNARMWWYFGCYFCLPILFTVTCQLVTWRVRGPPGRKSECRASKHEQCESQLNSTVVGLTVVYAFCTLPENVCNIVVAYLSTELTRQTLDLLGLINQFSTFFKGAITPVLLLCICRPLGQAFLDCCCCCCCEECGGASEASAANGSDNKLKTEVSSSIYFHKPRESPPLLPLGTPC
As to the kind of experiment: Beta-arrestin assay (PathHunter hGPR37L1 CHO-K1). The format is cell-based. Particulars: hGPR37L1 ChoK1 cells. On the procedure: Beta-arrestin assay: To screen for GPR37L1 ligands, the PathHunter® eXpress GPR37L1 CHO-K1 kit was purchased from Eurofins Discoveryone™ (DiscoverX Solutions for Drug Discovery, Fremont, CA; Cat #93-0378E2ACP1M). CHO-K1 cells express human GPR37L1 and were grown in 96-well plates for 48 hours. Lipid compounds were incubated with the ChoK1 cells for 1 hour at 37° C., and GPR37L1 activation was determined by measuring chemiluminescence using the beta-arrestin 2 (β-arrestin) detection kit (DiscoverX Solutions for Drug Discovery, Fremont, CA). The luminescent activity was measured using an Infinite F200 Pro Illuminometer (Tecan Trading AG, Switzerland).
Eight different concentrations of compounds ranging from 0.1 nM to 100 nM were tested.

For assay [2], the target named is T1, hGPR37L1. Kind of assay: Lipid-coated bead pull-down assay with hGPR37L1-expressing cells. It counts as binding. Also noted: expressed in transfected cells; host or cells: HEK293 Flp-In cells. Conditions: Western blot. On the procedure:
Lipid pull-down assay: Isolated membrane proteins were pre-adsorbed to uncoated control agarose beads (Vector Laboratories, Burlingame, CA); the unbound fraction was collected and incubated 24 hrs at 4° C. with lipid-coated agarose beads (S. Bang et al., GPR37 regulates macrophage phagocytosis and resolution of inflammatory pain. J Clin Invest 128, 3568-3582 (2018)). After extensive washing, bound proteins were eluted from the lipid-coated beads, suspended in Laemmli buffer containing 2% SDS (w/v) and 0.3-M β-mercaptoethanol (Sigma-Aldrich, St. Louis, MO), and heated 5 min at 95° C. to dissolve proteins before separation on 4-20% polyacrylamide/SDS gels as outlined above. The lysate proteins were detected by western blot.
Western blot: GPR37L1 proteins were isolated from transfected cells, lipid pull-down beads, and mouse DRG. The cells were placed on ice, washed with ice-cold phosphate-buffered saline (PBS), and harvested with ice-cold RIPA buffer (Sigma-Aldrich, St. Louis, MO) with Protease Inhibitor Cocktail Tablet (pH 7.4) (Roche Diagnostics, Indianapolis, IN). The cell lysates were centrifugated for removing insoluble debris and were calculated by BCA assay for detection of protein level, and the supernatant was mixed with 4× Laemmli buffer (Bio-Rad, Hercules, CA) and boiling. Protein samples were […] on 4-15% gradient SDS-PAGE gel (Bio-Rad, Hercules, CA) and blotted on PVDF membrane (Bio-Rad, Hercules, CA). Ponceau S staining was used for the detection of total proteins. The primary antibody was incubated with PBS+1% BSA at 4° C. overnight. We used the following primary antibodies: anti-GPR37L1 antibody (Bioss (Woburn, MA), Rabbit, 1:1000, #bs-15390R); anti-GAPDH antibody (Proteintech (Rosemont, IL), mouse, 1:2000, #60004); and anti-flag antibody (Cell Signaling Technologies (Danvers, MA), Rabbit, 1:1000, #14793). Blots were further incubated with an […] secondary anti-rabbit antibody (Jackson ImmunoResearch Laboratories (West Grove, PA), donkey, 1:5000), developed in ECL solution (Pierce Biotechnology, Appleton, WI)), and visualized in ChemiDoc XRS (Bio-Rad, Hercules, CA). Protein signal intensity was quantified by Image J software (NIH).
Next, a lipid-coated bead pull-down assay with hGPR37L1-expressing cells was used to confirm whether MaR1 would interact with GPR37L1 protein selectively. […] The right molecule size of GPR37L1 (˜50 kDa) was also validated by the anti-FLAG antibody (data not shown; see U.S. Prov. No. 63/270,198, FIG. 3E).
On the technique in general: A western blot detects proteins with antibodies after separation by electrophoresis.

For `CC/C=C\C/C=C\C[C@H](O)\C=C/C=C/C=C/[C@H](O)C/C=C\CCC(=O)O` [MaR1, Maresin 1], the “potency relative to TX14 in β-arrestin 2 assay” value at hGPR37L1 [1] is given as 10 times. This molecule also gave a β-arrestin signaling at hGPR37L1 [1] (0.1 nM to 100 nM, n=6) of 3.64 fold increase. For the same molecule, the EC50 at hGPR37L1 [1] (n=6, read-out: EC50 of β-arrestin response) was determined as 0.97 nM. Also, at hGPR37L1 [2], the “GPR37L1 binding in lipid-coated bead pull-down extracts” value was “Strong GPR37L1 binding”.
